Where two headings read alike, the source gives them in different places.
Key:
[1] = test system: genomic DNA from chicken erythrocytes; assay: Agarose gel electrophoresis of DNA compositions; assay type: binding; conditions: DNA 30 μg/mL; for Interaction with DNA (in words): 11.2 to 180 μM
Protocol: The mixtures were then incubated for 30 min. To visualize nucleic acids, the intercalating dye SYBR Green was added at a ratio of 1:10 to the final volume, and the mixtures were incubated in the dark for an additional 15 min. […] The electrolyte used was TAE buffer (pH 8.0).

HCT-116 and MCF-7 cells = assay: Confocal microscopy of intracellular localization; assay type: cell-based, human; conditions: DOX-1 and DOX-2 5 μM, 24 h; DOX 50 μM, 2 h
Protocol: A total of 24 h later, the studied compounds DOX-1 and DOX-2 at a concentration of 5 µM were added. Following another 24 h incubation period, Hoechst 33342 (Roche) was added, reaching a final concentration of 1.5 µg/mL. After 15 min, the dye-containing media was removed, and DBBS was added. The plate was subsequently analyzed using confocal microscopy (Zeiss LSM800, Jena, Germany).

SNB-19 = assay: MTS cytotoxicity assay; conditions: Homo sapiens, SNB-19, 72 h, read-out: Cytotoxic concentration IC50, SNB-19
Excerpt: (§1) The study utilized human cell lines including PC-3 (human prostate adenocarcinoma), HSF (primary human skin fibroblasts), MDA-MB-231 (estrogen-negative breast adenocarcinoma), MCF-7 (estrogen-positive breast adenocarcinoma), MSC (multipotent stem cells derived from adipose tissue), SF-539 (brain gliosarcoma), SNB-19 (glioblastoma), A-498 (kidney carcinoma), M-14 (human melanoma), NCI-H322-M (primary bronchioalveolar carcinoma), HCT-15 (colon adenocarcinoma), and HCT-116 (colorectal intestinal carcinoma). We also used immortalized C2C12 mouse myoblasts (ATCC—CRL-1772). Cancer cell lines were obtained from the ATCC collection and generously provided by the Fox Chase Cancer Center (Philadelphia, USA). Conditionally normal cells, including skin fibroblasts and multipotent stem cells, were isolated by our group from postoperative materials (skin and subcutaneous fat) obtained from a conditionally healthy donor. Reagents and consumables for cell culture work were purchased from PanEco (Russia).
(§2) The cytotoxicity of the compounds under study was assessed using MTS assay on cell cultures. Cells were seeded into 96-well plates at a concentration of 10,000–20,000 cells/mL. After 24 h, gradient concentrations of the compounds were added to the culture medium and the plates were incubated for 72 h. Subsequently, the culture medium was replaced with MTS reagents (Sigma-Aldrich, Burlington, MA, USA) (MTS:PMS (0.18:0.0092 mg/mL)) and dissolved in phenol-free RPMI 1640 medium. After 2 h of incubation, the resulting water-soluble formazan was measured using the TECAN Infinite M200 Pro microplate reader at wavelengths of 555/750 nm. As a control, equivalent volumes of the solvents in which each compound was dissolved (dH2O/DMSO) were used. To calculate the percentage of viable cells relative to the control, which was considered 100%, dose-response curves were plotted against the logarithm of the compound concentration. The concentration of the compound at which cell growth is inhibited by 50% relative to the control was taken as the inhibitory concentration IC50 and calculated using Origin Pro software 8.0.1. The study was conducted in triplicates and in three independent repetitions.

MTS cytotoxicity assay = assay: MTS cytotoxicity assay
Excerpt: as §1, §2

SF-539 = assay: MTS cytotoxicity assay; conditions: Homo sapiens, SF-539, 72 h, read-out: Cytotoxic concentration IC50, SF-539
Excerpt: as §1, §2

HCT-116 = assay: MTS cytotoxicity assay; conditions: for IC50: Homo sapiens; for Times reduced cytotoxicity compared to doxorubicin, HCT-116 / Selectivity index IC50 HSF/IC50 HCT-116: MTS assay; for Selectivity index IC50 HSF/IC50 HCT-116: from the mean IC50 value for HSF cells; for IC25, HCT-116 / IC75, HCT-116: test concentration selected based on MTS data
Excerpt: as §1, §2

A-498 = assay: MTS cytotoxicity assay; conditions: Homo sapiens, A498, 72 h, read-out: Cytotoxic concentration IC50, A-498
Excerpt: as §1, §2

MCF-7 = assay: MTS cytotoxicity assay; conditions: for IC50: Homo sapiens; for Selectivity index IC50 HSF/IC50 MCF-7: from the mean IC50 value for HSF cells
Excerpt: as §1, §2

MDA-MB-231 = assay: MTS cytotoxicity assay; conditions: Homo sapiens, MDA-MB-231, 72 h, read-out: Cytotoxic concentration IC50, MDA-MB-231
Excerpt: as §1, §2

NCI-H322M = assay: MTS cytotoxicity assay; conditions: Homo sapiens, 72 h, read-out: Cytotoxic concentration IC50, NCI-H322M
Excerpt: as §1, §2

M14 = assay: MTS cytotoxicity assay; conditions: Homo sapiens, M14, 72 h, read-out: Cytotoxic concentration IC50, M14
Excerpt: as §1, §2

PC-3 = assay: MTS cytotoxicity assay; conditions: for IC50: Homo sapiens; for Selectivity index IC50 HSF/IC50 PC-3: MTS assay, from the mean IC50 value for HSF cells
Excerpt: as §1, §2

[2] = test system: C2C12 (immortalized mouse myoblasts); assay: MTS cytotoxicity assay; conditions: for Inhibition of C2C12 cell proliferation: MTS assay, sufficiently high concentrations
Excerpt: as §1, §2

HCT-15 = assay: MTS cytotoxicity assay; conditions: Homo sapiens, HCT-15, 72 h, read-out: Cytotoxic concentration IC50, HCT-15
Excerpt: as §1, §2

[3] = test system: chicken erythrocyte genomic DNA; assay: Spectrophotometry of complexation with genomic DNA
Protocol: Chicken erythrocyte genomic DNA (Reanal, Budapest, Hungary) solution was prepared by dissolving 6 mg of DNA in 3 mL of Tris-EDTA (TE) buffer and allowed to stay for 2 days at a temperature of +2 °C until clear. The concentration of the initial DNA solution was measured using a nanodrop spectrophotometer (DeNovix, Wilmington, DE, USA). A series of DNA concentrations were prepared in TE buffer (60, 30, 20, 15 μg/mL). […] As a control, an equivalent amount of TE buffer in place of the genomic DNA was added to the samples. […] The results were then computed and statistically analyzed using GraphPad Prism software 8.0.1.

porcine neuronal tubulin = assay: Tubulin polymerization assay (Cytoskeleton kit); assay type: biochemical; conditions: effector 10 µM; for Maximum Initial Rate of Polymerization V Max: tubulin 3 mg/mL, 37 °C
Protocol: To assess the effect of the test compounds on tubulin polymerization, a test kit from Cytoskeleton was used. The plate was pre-warmed to 37 °C for 20 min before starting the assay. Then, 10 µL of the compound of interest, at a 10-fold concentration in an assay buffer, was pipetted into the plate. For comparison, paclitaxel, a polymerization enhancer, and vinblastine, a tubulin polymerization inhibitor, were used. Both effectors were used at a concentration of 10 µM. The assay buffer served as a control. The plate was then incubated at 37 °C for 2 min, after which 100 µL of the diluted tubulin solution (containing 3 mg/mL of tubulin in 80 mM PIPES pH 6.9, 2 mM MgCl2, 0.5 mM EGTA, 1 mM GTP, and 7% glycerol) was added. The plate was then immediately placed in the plate reader. Absorbance was measured at 340 nm every minute for 61 readings on a Varioskan LUX (Thermo Scientific, Waltham, MA, USA) plate reader.

[4] = HCT-116, 72 h, read-out: Cytotoxic concentration IC50, HCT-116
[5] = HCT-116, read-out: IC50, HCT-116
[6] = MCF7, 72 h, read-out: Cytotoxic concentration IC50, MCF-7
[7] = PC-3, 72 h, read-out: Cytotoxic concentration IC50, PC-3
[8] = test concentration selected based on MTS data

SMILES	Interaction with DNA (in words) [1]	Penetration into the cell nuclei (in words) (HCT-116 and MCF-7 cells)	IC50 (SNB-19)	IC50 at 72 h (MTS cytotoxicity assay; mouse)	IC50 (SF-539)	IC50 (HCT-116; [4])	IC50 (HCT-116; [5])	Times reduced cytotoxicity compared to doxorubicin, HCT-116 (HCT-116)	Selectivity index IC50 HSF/IC50 HCT-116 (HCT-116)	IC25, HCT-116 (HCT-116)	IC50 (A-498)	IC50 (MCF-7; [6])	IC50 (MDA-MB-231)	IC50 (NCI-H322M)	IC50 (M14)	IC50 (PC-3; [7])	IC50 (HCT-15)	Changes in the optical spectrum on interaction with genomic DNA (in words) [3]	Impact on tubulin polymerization (in words) (porcine neuronal tubulin)	Maximum Initial Rate of Polymerization V Max (porcine neuronal tubulin)	further results
COc1cccc2c1C(=O)c1c(O)c3c(c(O)c1C2=O)CC(O)(C(=O)CO)CC3OC1CC(NC(=O)c2cnc(C)c3c2COC(C)(C)O3)C(O)C(C)O1 (stereo not shown) [DOX-1, N-(3-hydroxy-2-methyl-6-((3,5,12-trihydroxy-3-(2-hydroxyacetyl)-10-methoxy-6,11-dioxo-1,2,3,4,6,11-hexahydrotetracen-1-yl)oxy)tetrahydro-2H-pyran-4-yl)-2,2,8-trimethyl-4H-[1,3]dioxino[4,5-c]pyridine-5-carboxamide]	do not interact with DNA	do not penetrate the cell nuclei	5080 ± 3400 nM	230 ± 160 nM	2060 ± 180 nM	4630 ± 550 nM	4000 nM	4.2	1.28 ± 0.18	1700 nM	4460 ± 3190 nM	1880 ± 480 nM	4050 ± 960 nM	7200 ± 4760 nM	4290 ± 1560 nM	5410 ± 880 nM	> 100000 nM	no significant changes	no statistically significant impact	5.5 mOD/Min	IC75, HCT-116 (HCT-116): 9000 nM; Times less potent than unmodified doxorubicin, MCF-7 (MCF-7; MTS assay): 20.9; Selectivity index IC50 HSF/IC50 MCF-7 (MCF-7; MTS assay): 3.32 ± 0.87; IC50 (PC-3; PC-3, read-out: IC50, PC-3): 6100 nM; Selectivity index IC50 HSF/IC50 PC-3 (PC-3): 1.12 ± 0.24; IC25, PC-3 (PC-3; concentration and corresponding IC used in the Comet assay): 3 µM (IC25); Inhibition of C2C12 cell proliferation [2]: ≥ 95%; Shift of the Absorption Maximum Relative to Control ([3]; DNA concentration 15 µg/mL): 2 nm; Shift of the Absorption Maximum Relative to Control ([3]; DNA concentration 20 µg/mL): 1 nm; Shift of the Absorption Maximum Relative to Control ([3]; DNA concentration 30 µg/mL): 4 nm; Shift of the Absorption Maximum Relative to Control ([3]; DNA concentration 60 µg/mL): 2 nm
COc1cccc2c1C(=O)c1c(O)c3c(c(O)c1C2=O)CC(O)(C(=O)CO)CC3OC1CC(NC(=O)/C=C/c2cnc(C)c3c2COC(C)(C)O3)C(O)C(C)O1 (stereo not shown) [DOX-2, (E)-N-(3-hydroxy-2-methyl-6-((3,5,12-trihydroxy-3-(2-hydroxyacetyl)-10-methoxy-6,11-dioxo-1,2,3,4,6,11-hexahydrotetracen-1-yl)oxy)tetrahydro-2H-pyran-4-yl)-3-(2,2,8-trimethyl-4H-[1,3]dioxino[4,5-c]pyridin-5-yl)acrylamide]	do not interact with DNA	do not penetrate the cell nuclei	870 ± 100 nM	2800 ± 1710 nM	1740 ± 110 nM	1430 ± 290 nM		1.3	>140		41700 ± 7420 nM	770 ± 150 nM	1580 ± 1030 nM	> 200000 nM	2610 ± 240 nM	1970 ± 310 nM	> 200000 nM	no significant changes	no statistically significant impact	6.8 mOD/Min	IC50 at 72 h (MTS cytotoxicity assay; human): > 200000 nM; Selectivity index for MCF-7, times greater than that of doxorubicin (MCF-7; MTS assay): 15; Times less potent than unmodified doxorubicin, MCF-7 (MCF-7; MTS assay): 8.5; Selectivity index IC50 HSF/IC50 MCF-7 (MCF-7; MTS assay): >260; Selectivity index IC50 HSF/IC50 PC-3 (PC-3): >100; inhibition at 200 µM ([2]; Mus musculus, C2C12, read-out: Inhibition of C2C12): ≤ 60%; Shift of the Absorption Maximum Relative to Control ([3]; DNA concentration 15 µg/mL): 0 nm; Shift of the Absorption Maximum Relative to Control ([3]; DNA concentration 20 µg/mL): 0 nm; Shift of the Absorption Maximum Relative to Control ([3]; DNA concentration 30 µg/mL): 0 nm; Shift of the Absorption Maximum Relative to Control ([3]; DNA concentration 60 µg/mL): 1 nm
COc1cccc2c1C(=O)c1c(O)c3c(c(O)c1C2=O)C[C@@](O)(C(=O)CO)C[C@@H]3O[C@H]1C[C@H](N)[C@H](O)[C@H](C)O1 [DOX, Doxorubicin, reference compound]		efficiently permeates and accumulates in the cell nuclei	100 ± 40 nM		530 ± 350 nM	1100 ± 640 nM	1000 nM			250 nM	350 ± 60 nM	90 ± 50 nM	730 ± 250 nM	2460 ± 1180 nM	160 ± 20 nM	1050 ± 620 nM	460 ± 160 nM	significant changes	no statistically significant impact	5.5 mOD/Min	Concentration sufficient to completely prevent migration of DNA ([1]; agarose gel): 15 µM; IC50 at 72 h (MTS cytotoxicity assay; human, HSF primary skin fibroblasts): 1120 ± 660 nM; IC50 at 72 h (MTS cytotoxicity assay; mouse, C2C12 immortalized myoblasts): 45 ± 4 nM; IC75, HCT-116 (HCT-116): 2500 nM; IC50 (MCF-7; MCF7, read-out: IC50, MCF-7): 50 nM; IC10, MCF-7 (MCF-7; [8]): 10 nM; IC25, MCF-7 (MCF-7; [8]): 20 nM; IC70, MCF-7 (MCF-7; [8]): 200 nM; IC50 (PC-3; PC-3, read-out: IC50, PC-3): 1100 nM; Inhibition of C2C12 cell proliferation [2]: ≥ 95%

From PMC10970924 (Life, 2024)
